Patent EP1212309B1, “CASPASE INHIBITOR” (LG Chem Investment, Ltd., priority 1999, dated 2001)

Legend:
Jurkat T cell = assay: MTT assay of cell death induced by Anti-FAS antibody CH11; format: cell-based; details: Homo sapiens; Jurkat T cell treated with Anti-FAS antibody CH11, MTT; read-out: ED50 FAS Induced cell death
caspase-1 = target: T1, caspase-1 (Homo sapiens, UniProt P29466); assay: Screening on caspases inhibiting activity (recombinant enzyme, fluorogenic AMC substrate); format: biochemical; details: Irreversible Inhibitors; for kinact/KI: read-out: Kobs/[I] for caspase-1
T1 construct: made in house
T1 sequence (P29466 120-297 limits assumed): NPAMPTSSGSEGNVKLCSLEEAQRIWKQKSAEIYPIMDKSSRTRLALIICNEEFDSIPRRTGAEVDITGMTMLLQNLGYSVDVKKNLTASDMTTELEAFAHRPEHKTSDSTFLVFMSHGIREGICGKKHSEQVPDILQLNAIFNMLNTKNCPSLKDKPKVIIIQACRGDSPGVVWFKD
T1 sequence (P29466 317-404 limits assumed): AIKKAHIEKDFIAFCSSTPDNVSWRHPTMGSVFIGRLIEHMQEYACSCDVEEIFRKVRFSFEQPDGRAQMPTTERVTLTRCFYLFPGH
Description: (§1) In the present experiment, recombinant caspases were purified from a transformed bacterium after human caspase genes were cloned into the expression vector pET, and then used in the experiment (Thornberry, N.A. et .al. Nature, 1992, 356, 768. Thombeny, N.A. Methods in Enzymology, 1994, 615.).
(§2) Enzymatic activity was measured by a known procedure (Walker N.P.C. et al., Cell 1994, 78, 343). Briefly, 10 ng of recombinant protein was mixed with 50 mM Tris(pH 7.0), 1mM DTT, 0.5 mM EDTA, 10% Glycerol buffer containing 1∼100 µM of enzyme substrate, Ac-YVAD-AMC or Ac-DEVD-AMC and then the changes by isolated AMC at 37°C were recorded. The inhibitory activity for caspases was calculated from the early enzyme reaction rate by measuring the changes with fluorescence excited at […] and emitted at 460 nm (Range; Ki<100nM).

caspase-3 = target: T2, caspase-3 (Homo sapiens, UniProt P42574); assay: as above; format: biochemical; details: Irreversible Inhibitors; for kinact/KI: read-out: Kobs/[I] for caspase-3
T2 construct: made in house
T2 sequence (P42574 29-175 limits assumed): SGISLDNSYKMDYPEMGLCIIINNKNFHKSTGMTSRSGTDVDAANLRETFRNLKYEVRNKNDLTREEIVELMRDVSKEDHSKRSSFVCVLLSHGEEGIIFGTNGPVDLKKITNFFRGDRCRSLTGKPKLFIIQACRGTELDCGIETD
T2 sequence (P42574 176-277 limits assumed): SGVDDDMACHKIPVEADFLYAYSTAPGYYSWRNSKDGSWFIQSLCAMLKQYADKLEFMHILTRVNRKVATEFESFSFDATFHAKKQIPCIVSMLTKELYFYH
Description: as §1, §2

[1] = system: TNFα -mediated liver toxicity; assay: TNFα-mediated liver toxicity and mortality in mice; format: in vivo, C57BL/6 female mice
[2] = system: anti-Fas antibody-induced liver apoptosis; assay: Anti-Fas antibody (Jo2)-induced liver apoptosis and lethality in mice; format: in vivo, C57BL/6 female mice
Description: […] C57BL/6 female mice(18-20 g) were injected i.p. with compound 33MP dissolved in vehicle which consists of olive oil and 10% DMSO, or vehicle alone, at 1 hr before i.v. injection with 10 µg of Anti-Fas antibody (Jo2). Following 4 hrs of i.v. injection with Jo2 antibody, animals were placed under inhaled isoflurane anesthesia for blood collection and liver isolation. Mice were also i.p. injected with 0.2 µg/20 g of TNFα and 12 mg/20 g of D-galactosamine(TNFα /GalN) and compound 33MP or its salt form (Compound 33MP-Na). 8 hrs later, blood and liver tissues were isolated from anesthetized animals. The liver tissues were snap-frozen and stored at -80° C until use. Plasma was isolated from blood by centrifugation at 12,000 x g for 10 min at 4° C and stored at -80° C. In some experiments for animal mortality, mice were i.p. injected with TNFα /GalN and caspase inhibitor was injected 1 hr before, simultaneously, 2 hrs, or 4 hrs after TNFα /GalN injection.
Whole tissues (0.5 g) were homogenated in ice-cold lysis buffer (5 mM Tris, 20 mM EDTA, 0.5% Triton-X 100, pH8.0). The lysate was centrifuged at 12,000 x g for 20 min at 4° C. The supernatant was obtained and extracted twice with a mixture of phenol and chloroform. One-tenth volume of 3 M sodium acetate was added to the solution, and DNA was precipitated by adding an equal volume of isopropanol. After storing at -20° C overnight, a DNA pellet was obtained by centrifugation at 12,000 x g for 15 min. at 4 ° C and washed twice with 75% ethanol. The pellet was dried and resuspended in 100 µl of 20 mM Tris-HCl, pH 8.0. After digesting RNA with DNase-free RNase (0.1 mg/ml) at 37 ° C for 1 hr, samples […] were electrophoresed through a 1.2% agarose gel in […] Tris borate + EDTA (TBE), pH 8.0 buffer. DNA was photographed under visualized with UV light.
Liver tissues were homogenated in 10 mM HEPES buffer containing protease inhibitors (5 µg/ml aprotinin, 5 µg/ml pepstatin A, 10 µg/ml leupeptin, and 0.5 mM PMSF) and lysed by three freeze/thaw cycles. The cytosolic fraction was obtained by centrifugation at 12,000 x g for 20 min. at 4" C. Protein concentration was determined with BCA protein assay reagent (pierce, Rockford, IL). Cytosol containing 200 µg protein was combined in 96-well plate with […] of synthetic substrate Ac-DEVD-pNA in 150 µl of 100 mM HEPES, pH 7.4, containing the protease inhibitors, and the reaction was conducted for 1 hr at 37° C. […] Plasma level of aspartate aminotransferase (AST) was analyzed by spectrophotometry using each enzyme assay kit (Sigma).

[3] = mice treated with TNFα /ActD (so in the source)

kinact/KI (caspase-1) | kinact/KI (caspase-3) | Structure (SMILES) | EC50 (Jurkat T cell) | other results
130000 M⁻¹ s⁻¹ | 114 M⁻¹ s⁻¹ | CC(C)[C@H](NC(=O)CCc1ccccc1)C1=NOC(Cc2ccccc2)(C(=O)N[C@@H](CC(=O)O)C(=O)COC(=O)c2c(Cl)cccc2Cl)C1 (mixture of isomers) [Compound 32, (3S)-3-{3-[2-methyl-(1S)-1-(phenylethylcarbonylamino)-propyl]-5-phenylmethyl-4,5-dihydro-isoxazole-5-carbonylamino}-4-keto-5-(2,6-dichlorobenzoyloxy)-pentanoic acid] | 1 to 10 µM | 
408000 M⁻¹ s⁻¹ | 160 M⁻¹ s⁻¹ | CC(C)[C@H](NC(=O)c1ccc2ccccc2n1)C1=NOC(Cc2ccccc2)(C(=O)N[C@@H](CC(=O)O)C(=O)COC(=O)c2c(Cl)cccc2Cl)C1 (stereo partly drawn) [Compound 42mp, (3S)-3-{3-[2-methyl-(1S)-1-(quinoline-2-yl-carbonylamino)-propyl]-5-phenylmethyl-4,5-dihydro-isoxazole-5-carbonylamino}-4-keto-5-(2,6-dichlorobenzoyloxy)-pentanoic acid] | 1 to 10 µM | 
577000 M⁻¹ s⁻¹ | 371 M⁻¹ s⁻¹ | CC(C)[C@H](NC(=O)c1cccc2ccccc12)C1=NOC(Cc2ccccc2)(C(=O)N[C@@H](CC(=O)O)C(=O)COC(=O)c2c(F)cccc2F)C1 (stereo partly drawn) [Compound 58, (3S)-3-{3-[2-methyl-(1S)-1-(naphthalene-1-carbonylamino)-propyl]-5-phenylmethyl-4,5-dihydro-isoxazole-5-carbonylamino}-4-keto-5-(2,6-difluorobenzoyloxy)-pentanoic acid] | 1 to 10 µM | 

The remaining lines, values behind:

Structure (SMILES) | kinact/KI (caspase-1) | kinact/KI (caspase-3) | EC50 (Jurkat T cell) | other results
CC1(C(=O)N[C@@H](CC(=O)O)C(=O)COC(=O)c2c(Cl)cccc2Cl)CC([C@H](CCC(=O)O)NC(=O)CCC(=O)O)=NO1 (single isomer, unassigned) [Compound 72] | 30800 M⁻¹ s⁻¹ | 176000 M⁻¹ s⁻¹ | 1 to 10 µM | 
CCCC1(C(=O)N[C@@H](CC(=O)O)C(=O)COC(=O)c2c(Cl)cccc2Cl)CC([C@@H](NC(=O)CCC(=O)O)C(C)C)=NO1 (single isomer, unassigned) [Compound 76] | 14000 M⁻¹ s⁻¹ | 197000 M⁻¹ s⁻¹ | 1 to 10 µM | 
CCCCC1(C(=O)N[C@@H](CC(=O)O)C(=O)COC(=O)c2c(Cl)cccc2Cl)CC([C@@H](NC(=O)CCC(=O)O)C(C)C)=NO1 (single isomer, unassigned) [Compound 80] | 14900 M⁻¹ s⁻¹ | 1.14e+06 M⁻¹ s⁻¹ | 1 to 10 µM | 
CC(C)[C@H](NC(=O)c1cccc2ccccc12)C1=NOC(Cc2ccccc2)(C(=O)N[C@@H](CC(=O)O)C(=O)COC(=O)c2c(Cl)cccc2Cl)C1 (stereo partly drawn) [Compound 33mp, (3S)-3-{3-[2-methyl-(1S)-1-(1-naphthalenecarbonylamino)-propyl]-5-phenylmethyl-4,5-dihydro-isoxazole-5-carbonylamino}-4-keto-5-(2,6-dichlorobenzoyloxy)-pentanoic acid] | 807000 M⁻¹ s⁻¹ | 500 M⁻¹ s⁻¹ | 1 to 10 µM | animals survived ([1]; TNFα /ActD-mediated mouse mortality, within 24 hrs): 80%; DNA fragmentation in liver tissues [1, 3]: significantly reduced; caspase-3-like activity in liver [1, 3]: suppressed; release of AST [1, 3]: suppressed; liver apoptosis as determined by DNA fragmentation ([2]; 0.4 mg/20 g, 1 mg/20 g i.p. 1 hr before anti-Fas antibody, 4 hrs after antibody): suppressed the liver apoptosis in a dose-dependent manner; release of liver enzyme AST ([2]; anti-Fas antibody-treated mice): significantly suppressed; reduction of mortality ([2]; anti-Fas antibody-treated mice (85% died within 24 hrs without treatment)): about 30%; caspase-3-like activity in liver tissues ([2]; anti-Fas antibody-treated mice, Ac-DEVD-pNA): abrogated
CC(C)[C@H](NC(=O)CCC(=O)O)C1=NOC(Cc2ccccc2)(C(=O)N[C@@H](CC(=O)O)C(=O)COC(=O)c2c(Cl)cccc2Cl)C1 (stereo partly drawn) [Compound 86, (3S)-3-{3-[2-methyl-(1S)-1-(succinoylamino)-propyl]-5-phenylmethyl-4,5-dihydro-isoxazole-5-carbonylamino}-4-keto-5-(2,6-dichlorobenzoyloxy)-pentanoic acid] |  |  |  | Kobs/[I] for caspase-1 (caspase-1): 7560 M⁻¹ s⁻¹; Kobs/[I] for caspase-3 (caspase-3): 28000 M⁻¹ s⁻¹
COCC1(C(=O)N[C@@H](CC(=O)O)C(=O)COC(=O)c2c(Cl)cccc2Cl)CC([C@@H](NC(=O)CCC(=O)O)C(C)C)=NO1 (stereo partly drawn) [Compound 87, (3S)-3-{3-[2-methyl-(1S)-1-(succinoylamino)-propyl]-5-methoxymethyl-4,5-dihydro-isoxazole-5-carbonylamino}-4-keto-5-(2,6-dichlorobenzoyloxy)-pentanoic acid] |  |  |  | Kobs/[I] for caspase-1 (caspase-1): 3400 M⁻¹ s⁻¹; Kobs/[I] for caspase-3 (caspase-3): 27400 M⁻¹ s⁻¹
